Assays:
A2058 cells = assay: Experimental melanoma metastasis, i.v. luciferase-expressing A2058 cells in NOD/SCID mice; assay type: in vivo; conditions: n=10 per group
Description: FIGS. 6A-N show combined MEK and proteasome inhibition exerts potent tumor-suppressive effects. (A) After treatments with 20 nM AZD6244, 100 nM Bortezomib, or both for 24 hr, viable cells were quantitated by CellTiter® Blue (mean±SD, n=6, ANOVA). (B and C) 1×10^6 A2058 cells were s.c. injected into NOD/SCID mice. After 7 days, mice were treated with DMSO, 5 mg/Kg AZD6244, 0.5 mg/Kg Bortezomib, or the combination via i.p. injection three times a week. Tumor volumes were measured using a caliper weekly (mean±SEM, ANOVA). Tumor growth curves were fitted to exponential growth models to derive tumor-doubling time (DT). Kaplan-Meier survival curve was plotted for each group (Log-rank test). (D) Proteins were detected by immunoblotting, 3 tumors per group. (E) Tumor lysates were used to quantitate AOs, 5 tumors per group (mean±SD, n=3, ANOVA). (F) Tumor lysates were used to seed Aβ1-42 peptides, 5 tumors per group (mean±SD, n=3, ANOVA). (G-H) Tumor sections were stained with CR, 5 tumors per group. […] Total CR fluorescence in each field was quantitated using ImageJ and normalized against total nuclei (median, n=50, ANOVA). […] Body weights were monitored weekly (mean±SD, n=10, ANOVA). […]
A2058 cells were s.c. injected into the left flanks of 9-week-old female NOD.CB17-Prkdc/J (NOD/SCID) mice (The Jackson Laboratory). […] Tumor volumes were calculated following the formula 4/3πR^3. […]

polyQ79 = polyQ79 aggregate size in HEK293T cells (Coulter counter); assay type: cell-based; conditions: 20 nM AZD6244, 100 nM Bortezomib, or both
Description: FIGS. 5A-Y show MEK and proteasome inhibition provoke protein aggregation and amyloidogenesis. (A-B) WM115 cells treated with 20 nM AZD6244, 100 nM Bortezomib, or both for 24 hr were stained with Lys48-specific ubiquitin antibodies. Arrowheads mark ubiquitin-positive aggregates. Scale bar: 10 μm. Amounts of aggregates per cell were quantitated using ImageJ (median, n≥100, ANOVA). (C-F) Following transfection with polyQ79 plasmids alone or with both polyQ79 and HSF1^S326D plasmids for one day, HEK293T cells were treated with inhibitors as described in (A-B). Cells were either analyzed for aggregate size or stained with 10 μM ThT. (G) Treated tumor cell lines were stained with 10 μM ThT. Geometric means were used to calculate fold changes in ThT fluorescence intensity and the log 2(FC) values were presented as a heat map. (H) HEK293T cells were transfected with LacZ or polyQ79 plasmid. Following treatments, AOs were quantitated by ELISA using A11 antibodies (mean±SD, n=3, ANOVA). (I) Intrinsic AOs were detected in human tumor cell lines (mean±SD, n=3, ANOVA). […] Amyloids were quantitated by ELISA (mean±SD, n=3, Student's t-test). […] AF formation was monitored by ThT binding (mean±SD, n=3, ANOVA). […] Amyloids were quantitated (mean±SD, n=3, Student's t-test). […] Viable cells were quantitated by CellTiter® blue (mean±SD, n=6, Student's t-test). […] Viable cells were quantitated (mean±SD, n=6, ANOVA). […]

CC(C)C[C@H](NC(=O)[C@H](Cc1ccccc1)NC(=O)c1cnccn1)B(O)O [Bortezomib, bortezomib]
mice with luminescence detected by in vivo imaging (A2058 cells): 40%
polyQ79 aggregate size (polyQ79): enhanced
